Source: ChEMBL document CHEMBL3044854, “Synthesis and biological evaluation of diamide derivatives of (S)-BINOL and biphenyl as potential anti-inflammatory/anti-arthritic agents” (2013)

What was measured:
[1] = In vitro antiarthritic activity assessed as inhibition of bovine serum albumin denaturation at 800 ug/mL after 20 min by UV-Visible spectrophotometric analysis relative to control; format: functional
[2] = In vitro antiarthritic activity assessed as inhibition of bovine serum albumin denaturation at 400 ug/mL after 20 min by UV-Visible spectrophotometric analysis relative to control; format: functional
[3] = In vitro antiarthritic activity assessed as inhibition of bovine serum albumin denaturation at 100 ug/mL after 20 min by UV-Visible spectrophotometric analysis relative to control; format: functional
[4] = system: Erythrocyte; experiment: Anti-inflammatory activity in Homo sapiens (human) RBCs assessed as prevention of hemolysis after 30 min by UV-Vis spectrophotometric analysis; format: functional, cell-based
[5] = In vitro antiarthritic activity assessed as inhibition of bovine serum albumin denaturation after 20 min by UV-Visible spectrophotometric analysis; format: functional
[6] = Anti-inflammatory activity in Homo sapiens (human) RBCs assessed as prevention of hemolysis at 200 ug/mL after 30 min by UV-Vis spectrophotometric analysis relative to control; format: functional, Erythrocyte
[7] = In vitro antiarthritic activity assessed as inhibition of bovine serum albumin denaturation at 200 ug/mL after 20 min by UV-Visible spectrophotometric analysis relative to control; format: functional
[8] = Anti-inflammatory activity in Homo sapiens (human) RBCs assessed as prevention of hemolysis at 50 ug/mL after 30 min by UV-Vis spectrophotometric analysis relative to control; format: functional, Erythrocyte
[9] = Anti-inflammatory activity in Homo sapiens (human) RBCs assessed as prevention of hemolysis at 10 ug/mL after 30 min by UV-Vis spectrophotometric analysis relative to control; format: functional, Erythrocyte
[10] = Anti-inflammatory activity in Homo sapiens (human) RBCs assessed as prevention of hemolysis at 100 ug/mL after 30 min by UV-Vis spectrophotometric analysis relative to control; format: functional, Erythrocyte
[11] = In vitro antiarthritic activity assessed as inhibition of bovine serum albumin denaturation at 50 ug/mL after 20 min by UV-Visible spectrophotometric analysis relative to control; format: functional

| Compound | inhibition [1] [%] | inhibition [2] [%] | inhibition [3] [%] | inhibition [4] | inhibition [5] | Activity [6] [%] | inhibition [7] [%] | Activity [8] [%] | Activity [9] [%] | Activity [10] [%] | inhibition [11] [%] |
| --- | --- | --- | --- | --- | --- | --- | --- | --- | --- | --- | --- |
| O=C(NCCSCCOc1ccc2ccccc2c1-c1c(OCCSCCNC(=O)c2ccco2)ccc2ccccc12)c1ccco1 | 98.7 | 87.8 | 50.8 | Dose-dependent effect | Dose-dependent effect | 96.2 | 71.5 | 65.5 | 56.5 | 88.9 | 29.5 |
| O=C(NCCSCCOc1ccccc1-c1ccccc1OCCSCCNC(=O)c1ccccc1)c1ccccc1 | 81.8 | 67.8 | 38.2 | Dose-dependent effect | Dose-dependent effect | 77.5 | 53 | 49 | 35.7 | 60.7 | 15.8 |
| C[C@]12C=CC(=O)C=C1CC[C@@H]1[C@@H]2[C@@H](O)C[C@@]2(C)[C@H]1CC[C@]2(O)C(=O)CO [PREDNISOLONE] |  |  |  |  |  | 91 |  | 57.9 | 46 | 84.8 |  |
| O=C(Cn1cnnn1)NCCSCCOc1ccc2ccccc2c1-c1c(OCCSCCNC(=O)Cn2cnnn2)ccc2ccccc12 | 94.2 | 74.1 | 39.6 | Dose-dependent effect | Dose-dependent effect | 91.6 | 67.1 | 69.7 | 61.9 | 82.5 | 19.6 |
| O=C(Cc1cccs1)NCCSCCOc1ccccc1-c1ccccc1OCCSCCNC(=O)Cc1cccs1 | 84.8 | 69.6 | 34.9 | Dose-dependent effect | Dose-dependent effect | 83.3 | 41.1 | 58.6 | 47.3 | 67.2 | 28.3 |
| O=C(Cc1cccs1)NCCSCCOc1ccc2ccccc2c1-c1c(OCCSCCNC(=O)Cc2cccs2)ccc2ccccc12 | 87.4 | 73.3 | 42.2 | Dose-dependent effect | Dose-dependent effect | 86 | 59.1 | 61.7 | 50.2 | 72.8 | 23.6 |
| O=C(NCCSCCOc1ccccc1-c1ccccc1OCCSCCNC(=O)c1ccco1)c1ccco1 | 97.2 | 83.1 | 46.6 | Dose-dependent effect | Dose-dependent effect | 94.1 | 68.8 | 62.9 | 55.2 | 84.7 | 25.7 |
| O=C(O)Cc1ccccc1Nc1c(Cl)cccc1Cl | 76.7 | 21.6 | 10.9 |  |  |  | 15.2 |  |  |  | 5.6 |
| O=C(NCCSCCOc1ccc2ccccc2c1-c1c(OCCSCCNC(=O)c2ccccc2)ccc2ccccc12)c1ccccc1 | 82.7 | 65.8 | 30.3 | Dose-dependent effect | Dose-dependent effect | 79.4 | 52.3 | 51.4 | 34.5 | 63.6 | 19.5 |
| O=C(Cn1cnnn1)NCCSCCOc1ccccc1-c1ccccc1OCCSCCNC(=O)Cn1cnnn1 | 91.9 | 76.3 | 42.2 | Dose-dependent effect | Dose-dependent effect | 89.4 | 65.1 | 63.3 | 54 | 75.3 | 21.6 |
